Test results taken from ChEMBL document CHEMBL5236570, “Substitution of a triazole for the central olefin in biologically active stilbenes” (2022).

Experiments:
[1] = system: Panel NCI-60 (60 carcinoma cell lines); assay: Growth inhibition of human Panel NCI-60 cells; assay type: functional
SF-295 = assay: Growth inhibition of human SF-295 cells; assay type: functional

Question: Which GI50 [1] does the source give for `COc1cc(/C=C/c2cc(O)c(C/C=C(\C)CCC=C(C)C)c(O)c2)cc2c1O[C@]1(C)CC[C@@H](O)C(C)(C)[C@H]1C2` [3-DEOXYSCHWEINFURTHIN B] here?
Answer: Its GI50 is 620 nM.

Question: And the GI50 (SF-295)?
Answer: The GI50 was 62 nM.

Question: How did the GI50 [1] turn out when `CC(C)=CCC/C(C)=C/Cc1c(O)cc(/C=C/c2cc(O)c3c(c2)C[C@@H]2C(C)(C)[C@H](O)[C@H](O)C[C@@]2(C)O3)cc1O` [SCHWEINFURTHIN A] was run?
Answer: Its GI50 is 360 nM.

Question: What about the GI50 (SF-295) of the same compound?
Answer: The GI50 was 11 nM.

Question: What does the source list for `COc1cc(CCc2cc(O)c(C/C=C(\C)CC/C=C(\C)CO)c(O)c2)cc2c1O[C@]1(C)CC[C@@H](O)C(C)(C)[C@H]1C2`?
Answer: GI50 [1]: 4900 nM; GI50 (SF-295): 2500 nM

Question: Which results are given for `COc1cc(-n2cc(-c3cc(O)c(C/C=C(\C)CCC=C(C)C)c(O)c3)nn2)cc2c1O[C@]1(C)CC[C@@H](O)C(C)(C)[C@H]1C2`?
Answer: GI50 [1]: 710 nM; GI50 (SF-295): 35 nM
